Laboratory results: patent publication US4542169A, “Biomedical devices containing isothiazolones to control bacteria growth” (Rohm and Haas Company, priority 1983, dated 1985)
≈ marks a conversion by molar mass, not a printed value. Structures can show the parent of a compound that is named as a salt.

What was measured:
[1] = test system: Pseudomonas aeruginosa (P.a.); assay: Zone of inhibition, polyvinyl chloride (vinyl) film discs; type: cell-based; settings: PVC
Protocol: (§1) In a two-liter, three-necked, round-bottom, flask equipped with a mechanical stirrer was placed 100 g of polyvinyl chloride, 590 g of reagent grade tetrahydrofuran, and 40.0 g of dioctylphthalate. This was stirred with gentle heating (35°-40° C.) for two hours to completely dissolve the polyvinyl chloride. Then, a barium/calcium salt of a fatty acid (3.5 g), a phosphite chelating agent (1.5 g), stearic Acid (0.25 g) and epoxidized soy bean oil (7.5 g), were mixed with 21 g of tetrahydrofuran and added to the polyvinyl chloride solution. After stirring at room temperature for 30 minutes, the solution was ready for use.
(§2) The films were cut into 1.25 cm discs and placed in agar plates inoculated with Staphlococcus aureus (S.a) or Echerichia coli (E.c.).
Discs were tested against Pseudomonas aeruginosa (P.a.). The 1.0% films gave a slight zone of inhibition while the 5.0% film gave a 1 mm zone of inhibition.

[2] = test system: E.c.; assay: Zone of inhibition, silicone rubber film discs on inoculated agar; type: cell-based, Echerichia coli; settings: for Zones: Silicone; for Zone of Inhibition: silicone rubber film
Text: as §2
(§3) The films were cut into discs and tested as in example one against S.a. and E.c.

[3] = test system: S.a.; assay: as above; type: cell-based, Staphlococcus aureus; settings: S.a.; for Zones: Silicone; for Zone of Inhibition: silicone rubber film
Text: as §2, §3

[4] = test system: P.a.; assay: Zone of inhibition, silicone film; type: cell-based, Pseudomonas aeruginosa
[5] = test system: Staphlococcus aureus (S.a); assay: Zone of inhibition, polyvinyl chloride film discs on inoculated agar; type: cell-based; settings: for Zones: PVC; for Zone of Inhibition: PVC film
Protocol: as §1
(§4) Films containing the isothiazolones were cast by first preparing a 0.5 weight percent polyvinyl chloride solution by adding the isothiazolone to the polyvinyl chloride solution. Then, portions of the 0.5% solution were diluted to 0.1 and 0.05%. The films were drawn down on 12"×12" glass plates using a 50 mil-3" wide coating bar and the films were allowed to air dry for 48 hours.
as §2

[6] = test system: Echerichia coli (E.c.); assay: as above; type: cell-based; settings: for Zones: PVC; for Zone of Inhibition: PVC film
Protocol: as §1, §4, §2

[7] = test system: Candida albicans (yeast); assay: Minimum inhibitory concentration, fungistatic activity; type: cell-based; settings: Table III: Active Ingredient MIC
[8] = test system: Aureobasidium pullulans; assay: as above; type: cell-based; settings: Table III: Active Ingredient MIC
[9] = test system: Pseudomonas aeruginosa; assay: Minimum inhibitory concentration, bacteriostatic activity; type: cell-based; settings: Table III: Active Ingredient MIC
[10] = test system: Escherichia coli; assay: as above; type: cell-based; settings: Table III: Active Ingredient MIC
[11] = test system: Aspergillus niger; assay: Minimum inhibitory concentration, fungistatic activity; type: cell-based; settings: Table III: Active Ingredient MIC
[12] = test system: Staphylococcus aureus; assay: Minimum inhibitory concentration, bacteriostatic activity; type: cell-based; settings: Table III: Active Ingredient MIC
[13] = test system: Aerobasidium pullulans (A.p); assay: Zone of inhibition, polyvinyl chloride film; type: cell-based; settings: PVC film
[14] = Solubility in H2O; type: physicochemical; settings: water
[15] = test system: Aerobasidium pullulans (A.p); assay: Growth of fungus on polyvinyl chloride film; type: cell-based; set-up: key: 0: zero (no growth); 5: five (heavy growth); settings: PVC film
Protocol: as §1, §4
(§5) In addition to zones of inhibition, the films were observed by growth of fungus on the film and rated from zero (no growth) to five (heavy growth).

[16] = test system: Aspergillis niger (A.n.); assay: Growth of fungus on polyvinyl chloride film; type: cell-based; set-up: key: 0: zero (no growth); 5: five (heavy growth); settings: PVC film
Protocol: as §1, §4, §5

[17] = test system: Aspergillis niger (A.n.); assay: Zone of inhibition, polyvinyl chloride film; type: cell-based; settings: PVC film

## CN(C)C1C(=O)C(C(N)=O)=C(O)C2(O)C(=O)C3=C(O)c4c(O)cccc4C(C)(O)C3CC12 (stereo not drawn) [T, Tetracycline HCl, reference compound]
[1]; 1.0%
  Zones: 0 mm
[1]; 5.0%
  Zones: 0 mm
[1]; .04%
  Zones: 0 mm
[1]; .20%
  Zones: 0 mm
[2]; 1.0%
  Zones: 9.8 mm
[2]; 5.0%
  Zones: 19.8 mm
[2]; .04%
  Zones: 0 mm
[2]; .20%
  Zones: 5.8 mm
[3]; 1.0%
  Zones: 21.3 mm
[3]; 5.0%
  Zones: 26.3 mm
[3]; .04%
  Zones: 6.3 mm
[3]; .20%
  Zones: 15.8 mm
[4]; 1.0%
  Zones: 0 mm
[4]; 5.0%
  Zones: 0 mm
[4]; .20%
  Zones: 0.3 mm
[5]; 1.0%
  Zones: 11.3 mm
[5]; 5.0%
  Zones: 19.8 mm
[5]; .04%
  Zones: 0 mm
[5]; .20%
  Zones: 0 mm
[6]; 1.0%
  Zones: 0 mm
[6]; .04%
  Zones: 0 mm
[6]; .20%
  Zones: 5.8 mm

## O=c1cc(Cl)sn1Cc1ccc(Cl)cc1 [5-chloro-2-(p-chlorobenzyl)-4-isothiazolin-3-one]
[7]
  MIC: 4 µg/mL (≈ 15.4 µM)
[8]
  MIC: 8 µg/mL (≈ 30.8 µM)
[9]
  MIC: 8 µg/mL (≈ 30.8 µM)
[10]
  MIC: 8 µg/mL (≈ 30.8 µM)
[11]
  MIC: 4 µg/mL (≈ 15.4 µM)
[12]
  MIC: 4 µg/mL (≈ 15.4 µM)

## CCCCCCCn1sc(Cl)c(Cl)c1=O [Compound 6, 4,5-Dichloro-N--n-heptyl-isothiazolin-3-one]
[13]; 0.05%
  Zone of Inhibition: 3 mm
[13]; 0.1%
  Zone of Inhibition: 1 mm
[13]; 0.5%
  Zone of Inhibition: 0 mm
[14]
  solubility: 25 µg/mL (≈ 93.2 µM)
[15]; 0.05%
  Growth on Film: 3
[15]; 0.1%
  Growth on Film: 2
[15]; 0.5%
  Growth on Film: 0
[16]; 0.05%
  Growth on Film: 0
[16]; 0.1%
  Growth on Film: 0
[16]; 0.5%
  Growth on Film: 0
[17]; 0.05%
  Zone of Inhibition: 0 mm
[17]; 0.1%
  Zone of Inhibition: 0 mm
[17]; 0.5%
  Zone of Inhibition: 0 mm
[5]; 0.05%
  Zone of Inhibition: 0 mm
[5]; 0.1%
  Zone of Inhibition: 1.3 mm
[5]; 0.5%
  Zone of Inhibition: 4.3 mm
[6]; 0.05%
  Zone of Inhibition: 0 mm
[6]; 0.1%
  Zone of Inhibition: 0 mm
[6]; 0.5%
  Zone of Inhibition: 0 mm

## CCN1CCN(C(=O)N[C@@H](C(=O)N[C@@H]2C(=O)N3[C@@H]2SC(C)(C)[C@@H]3C(=O)O)c2ccccc2)C(=O)C1=O [P, Piperacillin Na, reference compound]
[1]; 1.0%
  Zones: 0 mm
[1]; 5.0%
  Zones: 9.8 mm
[1]; .04%
  Zones: 0 mm
[1]; .20%
  Zones: 0 mm
[2]; 1.0%
  Zones: 13.3 mm
[2]; 5.0%
  Zones: 17.3 mm
[2]; .04%
  Zones: 0 mm
[2]; .20%
  Zones: 0.8 mm
[3]; 1.0%
  Zones: 14.8 mm
[3]; 5.0%
  Zones: 21.3 mm
[3]; .04%
  Zones: 0 mm
[3]; .20%
  Zones: 0 mm
[4]; 1.0%
  Zones: 5.3 mm
[4]; 5.0%
  Zones: 13.3 mm
[4]; .04%
  Zones: 0 mm
[4]; .20%
  Zones: 0 mm
[5]; 1.0%
  Zones: slight
[5]; 5.0%
  Zones: 13.8 mm
[5]; .04%
  Zones: 0 mm
[5]; .20%
  Zones: 0 mm
[6]; 1.0%
  Zones: 0 mm
[6]; .04%
  Zones: 0 mm
[6]; .20%
  Zones: 0 mm

## CCCCCCn1sc(Cl)c(Cl)c1=O [Compound 4, 4,5-Dichloro-N--n-hexyl-isothiazolin-3-one]
[13]; 0.05%
  Zone of Inhibition: 0 mm
[13]; 0.1%
  Zone of Inhibition: 0 mm
[13]; 0.5%
  Zone of Inhibition: 2.8 mm
[14]
  solubility: 143 µg/mL (≈ 563 µM)
[15]; 0.05%
  Growth on Film: 3
[15]; 0.1%
  Growth on Film: 0
[15]; 0.5%
  Growth on Film: 0
[16]; 0.05%
  Growth on Film: 0
[16]; 0.1%
  Growth on Film: 0
[16]; 0.5%
  Growth on Film: 0
[17]; 0.05%
  Zone of Inhibition: 0 mm
[17]; 0.1%
  Zone of Inhibition: 0 mm
[17]; 0.5%
  Zone of Inhibition: 3.8 mm
[5]; 0.05%
  Zone of Inhibition: 1.3 mm
[5]; 0.1%
  Zone of Inhibition: 2.3 mm
[5]; 0.5%
  Zone of Inhibition: 9.3 mm
[6]; 0.05%
  Zone of Inhibition: 0 mm
[6]; 0.1%
  Zone of Inhibition: 0 mm
[6]; 0.5%
  Zone of Inhibition: 0.8 mm

## O=c1c(Cl)c(Cl)sn1CCc1ccccc1 [Compound 3, 4,5-Dichloro-N-- 2-phenethyl-isothiazolin-3-one]
[13]; 0.05%
  Zone of Inhibition: 0 mm
[13]; 0.1%
  Zone of Inhibition: 0 mm
[13]; 0.5%
  Zone of Inhibition: 3.8 mm
[14]
  solubility: 96 µg/mL (≈ 350 µM)
[15]; 0.05%
  Growth on Film: 2
[15]; 0.1%
  Growth on Film: 0
[15]; 0.5%
  Growth on Film: 0
[16]; 0.05%
  Growth on Film: 1
[16]; 0.1%
  Growth on Film: 0
[16]; 0.5%
  Growth on Film: 0
[17]; 0.05%
  Zone of Inhibition: 0 mm
[17]; 0.1%
  Zone of Inhibition: 0 mm
[17]; 0.5%
  Zone of Inhibition: 4.8 mm
[5]; 0.05%
  Zone of Inhibition: 1.8 mm
[5]; 0.1%
  Zone of Inhibition: 4.3 mm
[5]; 0.5%
  Zone of Inhibition: 10.8 mm
[6]; 0.05%
  Zone of Inhibition: 0 mm
[6]; 0.1%
  Zone of Inhibition: 0 mm
[6]; 0.5%
  Zone of Inhibition: 1.8 mm

## O=c1c(Cl)c(Cl)sn1Cc1ccccc1 [Compound 2, 4,5-Dichloro-N--benzyl-isothiazolin-3-one]
[13]; 0.05%
  Zone of Inhibition: 0 mm
[13]; 0.1%
  Zone of Inhibition: 0 mm
[13]; 0.5%
  Zone of Inhibition: 4.8 mm
[14]
  solubility: 195 µg/mL (≈ 750 µM)
[15]; 0.05%
  Growth on Film: 4
[15]; 0.1%
  Growth on Film: 0
[15]; 0.5%
  Growth on Film: 0
[16]; 0.05%
  Growth on Film: 4
[16]; 0.1%
  Growth on Film: 0
[16]; 0.5%
  Growth on Film: 0
[17]; 0.05%
  Zone of Inhibition: 0 mm
[17]; 0.1%
  Zone of Inhibition: 0 mm
[17]; 0.5%
  Zone of Inhibition: 4.3 mm
[5]; 0.05%
  Zone of Inhibition: 2.0 mm
[5]; 0.1%
  Zone of Inhibition: 3.8 mm
[6]; 0.05%
  Zone of Inhibition: 0 mm
[6]; 0.1%
  Zone of Inhibition: 0 mm
[6]; 0.5%
  Zone of Inhibition: 3.3 mm

## Gentamycin sulfate [reference compound]
[1]; 5.0%
  Zones: 6.8 mm
[1]; .04%
  Zones: 0 mm
[1]; .20%
  Zones: 3.3 mm
[5]; .04%
  Zones: slight
[6]; 5.0%
  Zones: 9.3 mm
[6]; .04%
  Zones: 0 mm

## CCCCCCCCn1sc(Cl)c(Cl)c1=O [Compound 5, 4,5-Dichloro-N--n-octyl-isothiazolin-3-one]
[7]
  MIC: 5 µg/mL (≈ 17.7 µM)
[2]; Conc. 10
  Zone of Inhibition: 0 mm
[2]; Conc. 100
  Zone of Inhibition: 0 mm
[2]; Conc. 1000
  Zone of Inhibition: 0.8 mm
[8]
  MIC: 5 µg/mL (≈ 17.7 µM)
[9]
  MIC: 16 µg/mL (≈ 56.7 µM)
[3]; Conc. 10
  Zone of Inhibition: 0 mm
[3]; Conc. 100
  Zone of Inhibition: 1.8 mm
[3]; Conc. 1000
  Zone of Inhibition: 8.8 mm
[13]; 0.05%
  Zone of Inhibition: 0 mm
[13]; 0.1%
  Zone of Inhibition: 0 mm
[13]; 0.5%
  Zone of Inhibition: 0 mm
[10]
  MIC: 16 µg/mL (≈ 56.7 µM)
[11]
  MIC: 9 µg/mL (≈ 31.9 µM)
[15]; 0.05%
  Growth on Film: 5
[15]; 0.1%
  Growth on Film: 3
[15]; 0.5%
  Growth on Film: 1
[16]; 0.05%
  Growth on Film: 5
[16]; 0.1%
  Growth on Film: 3
[16]; 0.5%
  Growth on Film: 0
[12]
  MIC: 4 µg/mL (≈ 14.2 µM)
[17]; 0.05%
  Zone of Inhibition: 0 mm
[17]; 0.1%
  Zone of Inhibition: 0 mm
[17]; 0.5%
  Zone of Inhibition: 0 mm
[5]; 0.05%
  Zone of Inhibition: 0 mm
[5]; 0.1%
  Zone of Inhibition: 0.3 mm
[5]; 0.5%
  Zone of Inhibition: 3.3 mm
[6]; 0.05%
  Zone of Inhibition: 0 mm
[6]; 0.1%
  Zone of Inhibition: 0 mm
[6]; 0.5%
  Zone of Inhibition: 0 mm
